What all share (assay type): cell-based
One assay concerns the target α4β1 (Homo sapiens, UniProt P05556+P13612). The assay is described as follows: α4β1-VCAM Cell Adhesion Assay (Jurkat E6.1 human cells). Also noted: host or cells: Jurkat E6.1 human T cells. The note with it: Table 4-B; read-out: Cell Adhesion α4β1 IC50. As to the method:
Jurkat E6.1 human cells (Sigma #88042803) were cultured in RPMI 1640 HEPES medium (Invitrogen #22400-089) supplemented with 10% serum (Fetal Bovine Serum, Invitrogen #16140-071), 1 mM sodium pyruvate (Invitrogen #11360-070), 2 mM L-glutamine (Invitrogen #25030-081) and Penicillin-Streptomycin (Invitrogen #15140-122) at 100 units of penicillin and 100 μg of streptomycin per ml. The cells were washed two times in DMEM medium (ATCC #30-2002) supplemented with 0.1% BSA, 10 mM HEPES pH 7 and 1 mM MnCl2. The cells were re-suspended in supplemented DMEM medium at a density of 4×10^6 cells/ml.
A Nunc MaxiSorp plate was coated with rh VCAM-1/CD106 Fc chimera (R&D #862-VC) at 400 ng per well in 50 ul per well in 1×PBS and incubated at 4° C. overnight. The solution was then removed by shaking, blocked with 250 ul per well PBS containing 1% BSA, and incubated at 37° C. for 1 hr. The solution was removed by shaking. Peptides were diluted by serial dilution in a final volume of 50 ul per well (2× concentration). To each well, 50 ul of cells (200,000 cells) were added and the plate was incubated at 37° C., 5% CO2 for 30-45 min to allow cell adhesion. The wells were washed manually three times (100 ul per wash) with supplemented DMEM. After the final wash, 100 ul/well of supplemented DMEM and 10 ul/well of MTT reagent (ATTC cat#30-1010K) were added. The plate was incubated at 37° C., 5% CO2 for 2-3 hrs until a purple precipitate was visible. 100 ul of Detergent Reagent (ATTC cat#30-1010K) was added to each well. The plate was covered from the light, wrapped in Parafilm to prevent evaporation, and left overnight at room temperature in the dark. The plate was shaken for 5 min and the absorbance at 570 nm was measured. To calculate the dose response, the absorbance value of control wells not containing cells was subtracted from each test well.

In assay [1] the target is T1, α4β7 (Homo sapiens, UniProt P13612+P26010). Put plainly: α4β7-MAdCAM Cell Adhesion Assay (RPMI 8866 human cells). Also on record: host or cells: RPMI 8866 human B lymphoblastoid cells. The method, boiled down: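 Adhesion read-out: MTT absorbance at 570 nm minus no-cell wells, after three washes. Plates coated with rh MAdCAM-1/Fc received peptide dilutions plus 200,000 RPMI 8866 cells in Mn2+ (1 mM)-supplemented DMEM, 0.1% BSA, HEPES pH 7, incubated 30-45 min, 37 °C.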
T1 sequence (P13612 34-1032): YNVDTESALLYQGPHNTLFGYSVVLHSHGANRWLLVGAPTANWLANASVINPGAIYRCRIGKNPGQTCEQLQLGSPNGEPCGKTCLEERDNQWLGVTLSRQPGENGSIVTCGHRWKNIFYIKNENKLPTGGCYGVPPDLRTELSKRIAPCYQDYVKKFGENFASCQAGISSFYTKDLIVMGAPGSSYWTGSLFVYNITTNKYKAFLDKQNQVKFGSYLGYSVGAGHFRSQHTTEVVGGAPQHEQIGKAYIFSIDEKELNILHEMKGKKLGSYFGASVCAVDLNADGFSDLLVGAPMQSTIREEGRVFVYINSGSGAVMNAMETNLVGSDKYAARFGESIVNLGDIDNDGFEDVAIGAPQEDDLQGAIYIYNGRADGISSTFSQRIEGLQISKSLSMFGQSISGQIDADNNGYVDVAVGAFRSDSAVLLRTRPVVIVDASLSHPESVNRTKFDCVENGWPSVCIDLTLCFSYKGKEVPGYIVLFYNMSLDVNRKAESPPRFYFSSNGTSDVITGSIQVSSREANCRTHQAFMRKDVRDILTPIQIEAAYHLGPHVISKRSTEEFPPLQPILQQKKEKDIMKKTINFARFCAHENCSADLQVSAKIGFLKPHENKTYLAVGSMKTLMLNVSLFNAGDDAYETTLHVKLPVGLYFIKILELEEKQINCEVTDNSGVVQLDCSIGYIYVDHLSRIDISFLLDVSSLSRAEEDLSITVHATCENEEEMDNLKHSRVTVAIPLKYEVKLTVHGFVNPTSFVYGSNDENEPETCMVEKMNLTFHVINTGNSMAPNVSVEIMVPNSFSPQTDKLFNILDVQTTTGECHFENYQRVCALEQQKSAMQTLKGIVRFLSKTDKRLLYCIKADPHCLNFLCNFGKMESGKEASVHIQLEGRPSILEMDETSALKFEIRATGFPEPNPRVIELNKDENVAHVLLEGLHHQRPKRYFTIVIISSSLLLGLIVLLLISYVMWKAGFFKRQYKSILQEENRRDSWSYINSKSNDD
T1 sequence (P26010 20-798): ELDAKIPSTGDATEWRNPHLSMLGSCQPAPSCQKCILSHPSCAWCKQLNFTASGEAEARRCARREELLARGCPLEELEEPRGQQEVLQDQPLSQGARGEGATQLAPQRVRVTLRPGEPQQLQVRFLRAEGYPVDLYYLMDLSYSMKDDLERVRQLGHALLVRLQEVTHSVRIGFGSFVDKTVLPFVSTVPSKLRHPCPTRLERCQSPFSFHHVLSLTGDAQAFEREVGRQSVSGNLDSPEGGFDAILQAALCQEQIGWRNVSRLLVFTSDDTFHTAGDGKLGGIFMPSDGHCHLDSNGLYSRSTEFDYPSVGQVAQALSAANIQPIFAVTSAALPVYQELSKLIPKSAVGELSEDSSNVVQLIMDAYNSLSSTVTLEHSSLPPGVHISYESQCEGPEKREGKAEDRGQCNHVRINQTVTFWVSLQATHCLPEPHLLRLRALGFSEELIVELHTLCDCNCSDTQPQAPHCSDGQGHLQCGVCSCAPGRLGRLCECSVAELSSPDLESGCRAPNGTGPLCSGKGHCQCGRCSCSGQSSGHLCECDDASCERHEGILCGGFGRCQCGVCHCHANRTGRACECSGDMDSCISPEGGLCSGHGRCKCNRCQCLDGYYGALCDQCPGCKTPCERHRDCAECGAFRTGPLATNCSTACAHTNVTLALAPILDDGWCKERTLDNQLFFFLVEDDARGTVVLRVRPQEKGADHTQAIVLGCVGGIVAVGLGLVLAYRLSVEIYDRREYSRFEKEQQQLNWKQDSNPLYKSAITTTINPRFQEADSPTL

Assay [2] addresses T1, α4β7. Put plainly: PBMC Memory T Cell Adhesion Assay, adhesion to MAdCAM-1. The protocol: Fresh CD4+/CD45RO+ memory T cells were isolated from human peripheral blood mononuclear cell (PBMC) donors by Aragen Bioscience Inc. (Morgan Hill, Calif.). The assay plate was prepared using IgG Fc capture antibody (donkey anti human) immobilized at 500 ng/well in 50 mM sodium bicarbonate buffer, pH 9.5, ON, 4C onto a Greiner Fluotrac plate (100 ul per well). The plate was rinsed two time with Blocking Buffer (25 mM Tris HCl, pH7.5, 150 mM NaCl, 1.5% BSA, 0.05% Tween), and blocked with Blocking Buffer for 2 hours at 37 C or 5 hours at RT using 200 ul per well. The Blocking Buffer was removed and either MAdCAM-1 or VCAM-1 at 400 ng/well in Blocking Buffer was added and the plate incubated overnight at 4C (100 ul per well). The plate was washed two times with Blocking Buffer, and rinsed once with 200 ul Binding Media (DMEM phenol red free, 10 mM HEPES, 1×Na pyruvate, 1× Glutamine, and supplemented with 1 mM MnCl2 prior to use). To prepare cells, approximately 25 million CD4+/CD45RO+ memory T cells were counted by trypan blue exclusion using a haemocytometer to determine viability and cell count. The cells were transferred to a 50 ml conical tube, and centrifuged at 1200 rpm for 10 minute. The media was aspirated and the cell pellet resuspended in 15 ml Binding Media. The cells were centrifuged again and resuspended in the appropriate amount of Binding Media to be used for assays (50 ul of cells per well at 2× the final density). To each well, and equal volume (50 ul) of test compound was added and the plate was incubated for 1.5 hours at 37 C, 5% CO2. Each well was rinsed 3× with 150 ul per well of Binding Media. […] The plate was incubated at 37 C, 5% CO2, for 45 minutes. The plate was protected from light by using black adhesive seals. Fluorescence intensity was measured using a Molecular Devices Gemini EM Fluorescent Plate Reader (Ex 485/Em530, Bottom Read, Reading Sensitivity=20). IC50 curves are generated using Graph Pad Prism and the curves analyzed using analyzed using a non-linear regression (four parameters) algorithm. The log (concentration) versus RFU (Ex485/Em530) was plotted to determine IC50 values.

Setting [3] is: Table 4-B, read-out: Cell Adhesion α4β7 IC50.
Where [4] appears, read: Table 3-B, range classes, read-out: PBMC IC50.
The mark [5] stands for this setting: Table 3-B, Potency (α4β7), range classes, read-out: α4β7 cell (Hu) IC50.

Numbered stars: 1 amine (or outer) side, 2 acyl side, 3 side chain; on linkers, the order of the positions; unused ones are H or OH. Bridge positions count the residues as written; N and C are the ends. Square brackets hold non-standard residues; d marks the D form. Peptide text beside a SMILES is read from it. I, II: the chains in the order shown. Phe(4-COOH) = N[C@@H](Cc1ccc(C(=O)O)cc1)C(=O)O; 2Nal = N[C@@H](Cc1ccc2ccccc2c1)C(=O)O; Diglycolyl = O=C(COCC(=O)[*:2])[*:1]; NMeR = CN[C@@H](CCCNC(=N)N)C(=O)O; β3hE = N[C@@H](CCC(=O)O)CC(=O)O; Pen = CC(C)(S)[C@H](N)C(=O)O; dNMeK = CN[C@H](CCCCN)C(=O)O A value given as a limit tells only on which side of the number the result lay.

α4β1, sequence (P13612 34-1032): as the sequence (P13612 34-1032) above
α4β1, sequence (P05556 21-798): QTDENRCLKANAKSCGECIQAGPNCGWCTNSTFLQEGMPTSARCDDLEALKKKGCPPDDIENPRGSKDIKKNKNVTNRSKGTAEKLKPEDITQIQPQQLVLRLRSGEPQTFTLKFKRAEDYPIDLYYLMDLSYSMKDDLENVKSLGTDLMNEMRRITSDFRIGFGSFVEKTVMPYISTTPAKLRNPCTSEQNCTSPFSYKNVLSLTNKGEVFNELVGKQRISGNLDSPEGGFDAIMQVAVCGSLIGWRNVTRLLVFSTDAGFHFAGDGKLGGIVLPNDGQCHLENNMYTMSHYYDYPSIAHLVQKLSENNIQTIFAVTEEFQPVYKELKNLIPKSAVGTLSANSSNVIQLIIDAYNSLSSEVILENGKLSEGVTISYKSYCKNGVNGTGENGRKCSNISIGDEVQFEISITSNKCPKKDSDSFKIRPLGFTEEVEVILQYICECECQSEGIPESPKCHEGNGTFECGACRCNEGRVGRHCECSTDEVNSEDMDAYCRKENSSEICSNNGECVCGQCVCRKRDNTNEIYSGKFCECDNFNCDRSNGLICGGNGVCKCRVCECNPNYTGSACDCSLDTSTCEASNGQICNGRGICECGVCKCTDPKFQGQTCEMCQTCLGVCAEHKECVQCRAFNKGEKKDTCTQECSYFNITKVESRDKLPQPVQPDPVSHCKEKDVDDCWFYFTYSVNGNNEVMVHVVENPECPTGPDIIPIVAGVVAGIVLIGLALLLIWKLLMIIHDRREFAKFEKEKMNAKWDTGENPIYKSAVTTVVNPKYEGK

Consider `CC(=O)N[C@@H]1C(=O)N(C)[C@@H](CCCNC(=N)N)C(=O)N[C@@H](CO)C(=O)N[C@@H](CC(=O)O)C(=O)N[C@@H]([C@@H](C)O)C(=O)N[C@@H](CC(C)C)C(=O)N[C@H](C(=O)N[C@@H](Cc2ccc3ccccc3c2)C(=O)N[C@@H](CCC(=O)O)C(=O)N[C@H](CCCCNC(=O)COCC(=O)NCCCC[C@@H](NC(=O)[C@H](CCC(=O)O)NC(=O)[C@H](Cc2ccc3ccccc3c2)NC(=O)[C@H]2NC(=O)[C@H](CC(C)C)NC(=O)[C@H]([C@@H](C)O)NC(=O)[C@H](CC(=O)O)NC(=O)[C@H](CO)NC(=O)[C@H](CCCNC(=N)N)N(C)C(=O)[C@@H](NC(C)=O)C(C)(C)SSC2(C)C)C(N)=O)C(N)=O)C(C)(C)SSC1(C)C` [compound 212, (Ac-Pen-N-Me-R-S-D-T-L-Pen-2-Nal-E-k-NH2)2-DIG] (I: Ac-[Pen][NMeR]SDTL[Pen][2Nal]E[dK]-NH2 / II: Ac-[Pen][NMeR]SDTL[Pen][2Nal]E[dK]-NH2; disulfide I:1-I:7, II:1-II:7 (inferred); linker I:10-II:10 via Diglycolyl (inferred)), for which the IC50 was greater than 100000 nM on α4β1 and 2.5 nM on α4β7 [1] (setting [3]). For `CC(=O)N[C@H]1CSSC(C)(C)[C@@H](C(=O)N[C@H](CCCCN)C(N)=O)NC(=O)[C@H](CC(C)C)NC(=O)[C@H]([C@@H](C)O)NC(=O)[C@H](CC(=O)O)NC(=O)[C@H](CO)NC(=O)[C@H](CCCNC(=N)N)N(C)C1=O` [compound 202, Ac-C-N-Me-R-S-D-T-L-Pen-k-NH2] (Ac-C[NMeR]SDTL[Pen][dK]-NH2; disulfide 1-7), the 50% inhibitory concentration (IC50) on α4β1 is greater than 100000 nM; at α4β7 [1] (setting [3]), 11000 nM. On to `CC(=O)N[C@@H]1C(=O)N(C)[C@@H](CCCNC(=N)N)C(=O)N[C@@H](CO)C(=O)N[C@@H](CC(=O)O)C(=O)N[C@@H]([C@@H](C)O)C(=O)N[C@@H](CC(C)C)C(=O)N[C@H](C(=O)N[C@@H](Cc2ccc3ccccc3c2)C(=O)N[C@@H](CCC(=O)O)C(=O)N[C@H](CCCCN)C(N)=O)C(C)(C)SSC1(C)C` [compound 210, Ac-Pen-N-Me-R-S-D-T-L-Pen-2-Nal-E-k-NH2] (Ac-[Pen][NMeR]SDTL[Pen][2Nal]E[dK]-NH2; disulfide 1-7), for which the IC50 on α4β1 is greater than 100000 nM. As to `CC(=O)N[C@@H]1C(=O)N(C)[C@@H](CCCNC(=N)N)C(=O)N[C@@H](CO)C(=O)N[C@@H](CC(=O)O)C(=O)N[C@@H]([C@@H](C)O)C(=O)N[C@@H](CC(C)C)C(=O)N[C@H](C(=O)N[C@@H](Cc2c[nH]c3ccccc23)C(=O)N[C@H](CCC(=O)O)C(=O)N[C@H](CCCCNC(=O)COCC(=O)NCCCC[C@@H](NC(=O)[C@@H](CCC(=O)O)NC(=O)[C@H](Cc2c[nH]c3ccccc23)NC(=O)[C@H]2NC(=O)[C@H](CC(C)C)NC(=O)[C@H]([C@@H](C)O)NC(=O)[C@H](CC(=O)O)NC(=O)[C@H](CO)NC(=O)[C@H](CCCNC(=N)N)N(C)C(=O)[C@@H](NC(C)=O)C(C)(C)SSC2(C)C)C(N)=O)C(N)=O)C(C)(C)SSC1(C)C` [compound 211, (Ac-Pen-N-Me-R-S-D-T-L-Pen-W-e-k-NH2)2-DIG] (I: Ac-[Pen][NMeR]SDTL[Pen]W[dE][dK]-NH2 / II: Ac-[Pen][NMeR]SDTL[Pen]W[dE][dK]-NH2; disulfide I:1-I:7, II:1-II:7 (inferred); linker I:10-II:10 via Diglycolyl (inferred)), the half-inhibitory concentration (IC50) is greater than 100000 nM on α4β1 and 22 nM at α4β7 [1] (setting [3]). As to `CC(=O)N[C@@H]1C(=O)N(C)[C@@H](CCCNC(=N)N)C(=O)N[C@@H](CO)C(=O)N[C@@H](CC(=O)O)C(=O)N[C@@H]([C@@H](C)O)C(=O)N[C@@H](CC(C)C)C(=O)N[C@H](C(=O)N[C@@H](Cc2c[nH]c3ccccc23)C(=O)N[C@@H](CCC(=O)O)C(=O)N(C)[C@H](CCCCNC(=O)COCC(=O)NCCCC[C@H](C(N)=O)N(C)C(=O)[C@H](CCC(=O)O)NC(=O)[C@H](Cc2c[nH]c3ccccc23)NC(=O)[C@H]2NC(=O)[C@H](CC(C)C)NC(=O)[C@H]([C@@H](C)O)NC(=O)[C@H](CC(=O)O)NC(=O)[C@H](CO)NC(=O)[C@H](CCCNC(=N)N)N(C)C(=O)[C@@H](NC(C)=O)C(C)(C)SSC2(C)C)C(N)=O)C(C)(C)SSC1(C)C` [compound 214, [Ac-Pen-(N-Me-Arg)-Ser-Asp-Thr-Leu-Pen-Trp-Glu-(N-Me-D-Lys)-NH2]2-DIG] (I: Ac-[Pen][NMeR]SDTL[Pen]WE[dNMeK]-NH2 / II: Ac-[Pen][NMeR]SDTL[Pen]WE[dNMeK]-NH2; disulfide I:1-I:7, II:1-II:7 (inferred); linker I:10-II:10 via Diglycolyl (inferred)), the concentration for half-maximal inhibition (IC50) at α4β7 [2] (Table 4-B, read-out: Cell Adhesion PBMC IC50) was 24.5 nM; on α4β7 [1] (setting [3]), 2.5 nM. For the compound `CC(=O)N[C@@H]1C(=O)N(C)[C@@H](CCCNC(=N)N)C(=O)N[C@@H](CO)C(=O)N[C@@H](CC(=O)O)C(=O)N[C@@H]([C@@H](C)O)C(=O)N[C@@H](CC(C)C)C(=O)N[C@H](C(=O)N[C@@H](Cc2ccc(C(=O)O)cc2)C(=O)N[C@@H](CCC(=O)O)CC(=O)N[C@H](CCCCNC(=O)COCC(=O)NCCCC[C@@H](NC(=O)C[C@H](CCC(=O)O)NC(=O)[C@H](Cc2ccc(C(=O)O)cc2)NC(=O)[C@H]2NC(=O)[C@H](CC(C)C)NC(=O)[C@H]([C@@H](C)O)NC(=O)[C@H](CC(=O)O)NC(=O)[C@H](CO)NC(=O)[C@H](CCCNC(=N)N)N(C)C(=O)[C@@H](NC(C)=O)C(C)(C)SSC2(C)C)C(N)=O)C(N)=O)C(C)(C)SSC1(C)C` [compound 130] (I: Ac-[Pen][NMeR]SDTL[Pen][Phe(4-COOH)][β3hE][dK]-NH2 / II: Ac-[Pen][NMeR]SDTL[Pen][Phe(4-COOH)][β3hE][dK]-NH2; disulfide I:1-I:7, II:1-II:7; linker I:10-II:10 via Diglycolyl), the IC50 at α4β7 [2] (setting [4]) and on α4β7 [1] (setting [5]) was less than 10 nM each time.

With `CC(=O)N[C@@H]1C(=O)N(C)[C@@H](CCCNC(=N)N)C(=O)N[C@@H](CO)C(=O)N[C@@H](CC(=O)O)C(=O)N[C@@H]([C@@H](C)O)C(=O)N[C@@H](CC(C)C)C(=O)N[C@H](C(=O)N[C@@H](Cc2ccc(C(=O)O)cc2)C(=O)N[C@@H](CCC(=O)O)C(=O)N[C@H](CCCCNC(=O)COCC(=O)NCCCC[C@@H](NC(=O)[C@H](CCC(=O)O)NC(=O)[C@H](Cc2ccc(C(=O)O)cc2)NC(=O)[C@H]2NC(=O)[C@H](CC(C)C)NC(=O)[C@H]([C@@H](C)O)NC(=O)[C@H](CC(=O)O)NC(=O)[C@H](CO)NC(=O)[C@H](CCCNC(=N)N)N(C)C(=O)[C@@H](NC(C)=O)C(C)(C)SSC2(C)C)C(N)=O)C(N)=O)C(C)(C)SSC1(C)C` [compound 129] (I: Ac-[Pen][NMeR]SDTL[Pen][Phe(4-COOH)]E[dK]-NH2 / II: Ac-[Pen][NMeR]SDTL[Pen][Phe(4-COOH)]E[dK]-NH2; disulfide I:1-I:7, II:1-II:7; linker I:10-II:10 via Diglycolyl), the concentration for half-maximal inhibition (IC50) at α4β7 [2] (setting [4]) and on α4β7 [1] (setting [5]) was less than 10 nM throughout.

Usually IC50 stands for the point on the concentration scale where inhibition reaches its midpoint.

(Values after patent publication US9809623B2, “α4β7 peptide monomer and dimer antagonists” (Protagonist Therapeutics, Inc., priority 2014, dated 2017).)
